Results: US20240254083A1, “HETEROCYCLIC TRPML1 AGONISTS AND USES THEREOF” (Libra Therapeutics, Inc., priority 2021, published 2024)

Key:
[1] = system: autophagy reporter Rosella stably expressed in HeK293 cell line; experiment: Autophagy assay (Rosella-LC3 reporter, imaging); type: cell-based; conditions: Homo sapiens; HeK293 cells with Rosella reporter (LC3 tag), 18 hours incubation, reference Torin-1; read-out: Autophagy pEC50 (converted)
Description: • Tyrode's buffer with 2 mM Ca^2+ in-house solution (130 mM NaCl, 5 mM KCl, 2 mM CaCl2), 1 mM MgCl2, 5 mM NaHCO3, 20 mM HEPES in water at pH 7.4; sterile filtered) • DMSO (Sigma) • Bis-benzimide H 33342 trihydrochloride (Hoechst 33342; Sigma-Aldrich) • Reference molecule (agonist): Torin-1, (#4247, Tocris) stock 1.2 mM in DMSO, stored at −20° C. Reporter of Autophagy and Cell line
Reporter Rosella: a fluorescent-based chimera constitutes by two fluorescent proteins, Green and Red variants, acting as a bimodal indicator of pH. The green fluorescent variant of the constructs is pH sensitive (pKa=6.9) while the red variant is not pH sensitive and it is used as reference. The reporter is fused to sequence for autophagosome localization (LC3 tag).
The reporter Rosella have been stably expressed in HeK293 cell line and used as read-out.
Experiments have been performed in 384 MTP poly-lysine coated well format. Cells have been seeded in 384-w at a density of 6000 cells/well in 25 μl/well complete growth medium without antibiotics. Twenty-four hours later, cells have been treated with compounds and incubated for further 18 hours. Then the cells have been imaged and assayed for the response to various compounds using the reporter for autophagy expressed in the cells as readout.
The experiments were performed in a 384-well format according to the following procedure: • 24 h after seeding, cells were incubated with compounds at the desired concentration, and with the reference molecule (agonist) Torin-1 at a top concentration of 1 μM (max signal), for 18 hours at 37° C. and 5% CO2. The final percentage of DMSO was 0.3% in all the conditions. • Then the culture medium was carefully removed to avoid cells detachment and to discard red phenol into the medium and that can interfere with the measurements. • Staining of the nuclei was obtained by incubating the cells with 8 μM/well of Hoechst 3342 in standard Tyrode's buffer for 20 min at RT • Then the cells were carefully washed two times with standard Tyrode's buffer • Finally, the samples were acquired by recording three fluorescence emission channels (green, red and blue) at 20× magnification and with at least 3-4 fields of view per well in an Operetta CLS microscope (PerkinElmer). • Image analysis was performed by using Harmony software (PerkinElmer). The image analysis involved the following steps: flat-field illumination correction, nuclei segmentation, cell segmentations and identification of vesicles/granules within the cytosol compartments and representing the autophagy vesicles. Measurements of signal intensity ratio (Green to Red) and number of autophagy vesicles per cells were used to obtain information on the effects of compounds on the autophagy flux. • Data from image analysis measurements were finally loaded and analyzed for normalization and fitting procedures in Genedata Screener© software.

hTRPML1 = target: T1, hTRPML1 (Homo sapiens, UniProt Q9GZU1); experiment: Cellular TRPML1 assay (FLIPR, GCaMP6f calcium read-out); type: cell-based; conditions: HEK T-REx/GCaMP6f/TRPML1 cells, FLIPR TETRA, kinetic response over 300 seconds; read-out: hTRPML1 FLIPR pEC50 (converted)
T1 construct: expressed in transfected cells
Description: Buffers and reagents • PBS (D-PBS without calcium and magnesium; EuroClone) • Trypsin (Trypsin 0.05%, EDTA 0.02% in PBS; EuroClone) • DMSO (Sigma) • Ca^2+ free Tyrode's buffer: in-house solution (130 mM NaCl, 5 mM KCl, 1 mM MgCl2, 5 mM NaHCO3, 20 mM HEPES in water at pH 7.4; sterile filtered). • Opti-MEM (Gibco) • Agonist: ML-SA1 (Sigma); stock: 60 mM in DMSO, stored at −20° C. • Blocker: ML-SI3 (in house synthesis); stock: 20 mM in DMSO, stored at −20° C.
Cell line • The final clone for the TRPML1 assay is HEK T-REx/GCaMP6f/TRPML1. • GCaMP6f is a genetically encoded calcium indicator that is stably expressed in this cell line and used as a fluorescent read-out.
Cells are seeded at 15000 cells/well either in 25 µl/well of growth medium or in 20 μl/well of Optimem+0.5% FBS without selection antibiotics. Twenty-four hours later, cells are assayed for the response to various compounds using the Ca^2+ sensitive GCaMP6f protein stably expressed in the cells as readout.
The experiment is performed in a 384-well format according to the following procedures for either Ca^2+ free or Optimem conditions: • Ca^2+ free condition (in absence of extracellular Ca^2+): • 24 h after seeding, pre-incubate the cells at room temperature for about 10′. • Then remove the culture medium and replace it with 20 μL of Ca^2+ free Tyrode's buffer. • Start the experiment at the FLIPR^TETRA by injecting 10 μL/w of 3× concentrated test compounds and controls in Ca^2+ free Tyrode's buffer. Monitor the kinetic response over a period of 300 seconds. • Final DMSO concentration: 0.5% • Optimem condition (in presence of extracellular Ca^2+): • 24 h after seeding, pre-incubate the cells at room temperature for about 10′. • Start the experiment at the FLIPR^TETRA by injecting 10 μL/w of 3× concentrated test compounds and controls in Ca^2+ free Tyrode's buffer. Monitor the kinetic response over a period of 300 seconds. • Final DMSO concentration: 0.5%
Data from FLIPR^TETRA measurements are analyzed with the Genedata Screener© software.

T1 sequence (Q9GZU1 whole entry): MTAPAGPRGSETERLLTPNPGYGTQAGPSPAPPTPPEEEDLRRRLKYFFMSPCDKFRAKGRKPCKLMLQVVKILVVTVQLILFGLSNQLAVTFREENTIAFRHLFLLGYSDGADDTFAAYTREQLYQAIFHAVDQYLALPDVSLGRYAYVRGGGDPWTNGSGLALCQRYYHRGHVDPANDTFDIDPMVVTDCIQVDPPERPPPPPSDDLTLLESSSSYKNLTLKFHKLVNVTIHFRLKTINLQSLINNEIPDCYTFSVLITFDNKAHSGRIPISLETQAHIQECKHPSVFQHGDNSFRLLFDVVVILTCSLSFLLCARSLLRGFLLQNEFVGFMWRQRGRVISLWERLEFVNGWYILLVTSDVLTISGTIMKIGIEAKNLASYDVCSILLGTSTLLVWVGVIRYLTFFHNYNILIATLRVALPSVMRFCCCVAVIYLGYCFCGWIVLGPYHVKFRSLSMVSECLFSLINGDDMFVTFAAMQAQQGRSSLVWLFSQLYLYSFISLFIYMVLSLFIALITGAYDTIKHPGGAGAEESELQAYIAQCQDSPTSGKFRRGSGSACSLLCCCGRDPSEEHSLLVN

Row | SMILES | EC50 [1] | EC50 (hTRPML1)
1 | C#CCC1CN(c2ccccc2NS(=O)(=O)c2ccc(S(=O)(=O)N(C)C)cc2)CCO1 (stereo not shown) [Example 33, N^1,N^1-dimethyl-N^4-(2-(2-(prop-2-yn-1-yl)morpholino)phenyl)benzene-1,4-disulfonamide] | < 1 µM | > 3.16 µM
2 | CN(C)S(=O)(=O)c1ccc(S(=O)(=O)Nc2ccccc2N2CCCC(Oc3ccccc3)C2)cc1 (racemic) [Example 28, N^1,N^1-dimethyl-N^4-(2-(3-phenoxypiperidin-1-yl)phenyl)benzene-1,4-disulfonamide] | < 1 µM | 1 to 3.16 µM
3 | CN(C)S(=O)(=O)c1ccc(S(=O)(=O)Nc2ccccc2N2CCOC(C3CCC3)C2)cc1 (stereo not shown) [Example 32, N^1-(2-(2-cyclobutylmorpholino)phenyl)-N^4,N^4-dimethylbenzene-1,4-disulfonamide] | 1 to 3.16 µM | > 3.16 µM
4 | CN(C)S(=O)(=O)c1ccc(S(=O)(=O)Nc2ccccc2N2CCCC(COc3ccccc3)C2)cc1 (racemic) [Example 34, N^1,N^1-dimethyl-N^4-(2-(3-(phenoxymethyl)piperidin-1-yl)phenyl)benzene-1,4-disulfonamide] | 1 to 3.16 µM | 1 to 3.16 µM
5 | CN(C)S(=O)(=O)c1ccc(S(=O)(=O)Nc2ccccc2N2CCOC(C3CC3)C2)cc1 (stereo not shown) [Example 31, N^1-(2-(2-cyclopropylmorpholino)phenyl)-N^4, N^4-dimethylbenzene-1,4-disulfonamide] | > 3.16 µM | > 3.16 µM
6 | CN(C)S(=O)(=O)c1ccc(C(=O)N(c2ccccc2N2CCC(Oc3ccccc3)CC2)C2CCCC2)cc1 [Example 1, N-cyclopentyl-4-(N,N-dimethylsulfamoyl)-N-(2-(4-phenoxypiperidin-1-yl)phenyl)benzamide] | < 1 µM | 1 to 3.16 µM
7 | CN(C)S(=O)(=O)c1ccc(C(=O)N(c2ccccc2N2CCC(Oc3ccccc3)CC2)C2CCC2)cc1 [Example 2, N-cyclobutyl-4-(N,N-dimethylsulfamoyl)-N-(2-(4-phenoxypiperidin-1-yl)phenyl)benzamide] | < 1 µM | 1 to 3.16 µM
8 | Cc1ccc(S(=O)(=O)Nc2ccccc2N2CCN(C(=O)OC(C)(C)C)CC2)cc1F [Example 19, tert-butyl 4-(2-((3-fluoro-4-methylphenyl)sulfonamido)phenyl)piperazine-1-carboxylate] | > 3.16 µM | 1 to 3.16 µM
9 | CN(C)S(=O)(=O)c1ccc(S(=O)(=O)Nc2ccccc2N2CCC(C)(Oc3ccccn3)CC2)cc1 [Example 40, N^1,N^1-dimethyl-N^4-(2-(4-methyl-4-(pyridin-2-yloxy)piperidin-1-yl)phenyl)benzene-1,4-disulfonamide] | < 1 µM | > 3.16 µM
10 | CN(C)S(=O)(=O)c1ccc(S(=O)(=O)Nc2ccccc2N2CCC(C)(c3ccccc3)CC2)cc1 [Example 38, N^1,N^1-dimethyl-N^4-(2-(4-methyl-4-phenylpiperidin-1-yl)phenyl)benzene-1,4-disulfonamide] | < 1 µM | 1 to 3.16 µM
11 | CN(C)S(=O)(=O)c1ccc(S(=O)(=O)Nc2cccc(F)c2N2CCC(Oc3ccccn3)CC2)cc1 [Example 8, N^1-(3-fluoro-2-(4-(pyridin-2-yloxy)piperidin-1-yl)phenyl)-N^4,N^4-dimethylbenzene-1,4-disulfonamide] | < 1 µM | < 1 µM
12 | CCS(=O)(=O)c1ccc(S(=O)(=O)Nc2ccccc2N2CCC(Oc3ccccc3)CC2)cc1 [Example 6, 4-(ethylsulfonyl)-N-(2-(4-phenoxypiperidin-1-yl)phenyl)benzenesulfonamide] | > 3.16 µM | > 3.16 µM
13 | CN(C)S(=O)(=O)c1ccc(S(=O)(=O)Nc2ccccc2N2CCCC(OCc3ccccc3)C2)cc1 (racemic) [Example 25, N^1-(2-(3-(benzyloxy)piperidin-1-yl)phenyl)-N^4,N^4-dimethylbenzene-1,4-disulfonamide] | 1 to 3.16 µM | 1 to 3.16 µM
14 | CC(C)(C)OC(=O)N1CCN(c2ccccc2NS(=O)(=O)c2ccc(C3CC3)cc2)CC1 [Example 23, tert-butyl 4-(2-((4-cyclopropylphenyl)sulfonamido)phenyl) piperazine-1-carboxylate] | > 3.16 µM | 1 to 3.16 µM
15 | CC(C)(C)OC(=O)N1CCN(c2ccccc2NS(=O)(=O)c2ccc(C(F)(F)F)cc2)CC1 [Example 17, tert-butyl 4-(2-((4-(trifluoromethyl)phenyl)sulfonamido)phenyl) piperazine-1-carboxylate] | < 1 µM | 1 to 3.16 µM
16 | O=S(=O)(Nc1cccc(F)c1N1CCC(Oc2ccccn2)CC1)c1ccc(C(F)(F)F)cc1 [Example 10, N-(3-fluoro-2-(4-(pyridin-2-yloxy)piperidin-1-yl)phenyl)-4-(trifluoromethyl)benzenesulfonamide] | 1 to 3.16 µM | 1 to 3.16 µM
17 | Cc1ccc(S(=O)(=O)Nc2c(C)cccc2N2CCN(C(=O)OC(C)(C)C)CC2)cc1 [Example 22, tert-butyl 4-(3-methyl-2-((4-methylphenyl)sulfonamido)phenyl)piperazine-1-carboxylate] | > 3.16 µM | 1 to 3.16 µM
